Experimental data taken from patent US8242080B2, “Inhibitors of the EGFR kinase targeting the asymmetric activating dimer interface” (The Regents of the University of California, priority 2006, dated 2012).
Where a SMILES comes first, the peptide text is derived from it.

What was measured:
[1] = target: T1, wildtype EGFR kinase domain (Homo sapiens, UniProt P00533); assay: Continuous enzyme-coupled kinase assay, substrate peptide KM; format: biochemical; conditions: preliminary experiments, substrate peptide at various concentrations; ATP 0.5 mM
T1 construct: DNA encoding residues 672-998 of human EGFR was cloned into pFAST BAC HT; made in house; host or cells: Sf9 insect cells (baculovirus, pFAST BAC HT; b247 prints 'SD cells')
Experimental: (§1) A continuous enzyme-coupled kinase assay was performed to measure the kinase activity of the proteins as described in Barker et al., ((1995) Biochemistry, Vol. 34(54): 14843-51), with modifications, as described herein. The ATP concentration was kept to 0.5 mM.
(§2) The buffer used contained 10 mM MgCl2, 20 mM Tris, and pH 7.5. […] The substrate peptide was derived from the region spanning Y1173 in EGFR ([…]) (SEQ ID NO: 7). All proteins used in this assay contained the N-terminal (His)6 tag unless otherwise noted.
For comparing the specific activity of the wildtype and various mutant forms of the EGFR kinase domain in the presence and absence of lipid vesicles, the density of DOGS-NTA-Ni on lipid vesicles was kept at 5 mole percent. […] Due to this high value of KM, the values of KM and kcat were not measured directly. Instead, the value of kcat/KM was derived from a linear fit to the data obtained, using concentrations of the peptide that are much lower than the estimated value of KM (V=[S]Vmax/(KM+[S]), V˜(Vmax/KM)[S] when [S]<<KM, kcat=Vmax/amount of the enzyme, where V and Vmax are the initial velocity and maximum initial velocity, respectively. (FIG. 6A).

[2] = target: T2, activated EGFR kinase (Homo sapiens, UniProt P00533); assay: Inhibition of activated EGFR kinase (kinase assay with kinase domain attached to vesicles); format: biochemical; conditions: read-out: IC50 inhibiting activated EGFR kinase
T2 construct: DNA encoding residues 672-998 of human EGFR was cloned into pFAST BAC HT; made in house; host or cells: Sf9 insect cells (baculovirus, pFAST BAC HT; b247 prints 'SD cells')
Experimental: as §1, §2
The protein concentrations of the EGFR kinase domain used in the assay ranged from 3.5 to 14 μM. The total concentration of the DOGS-NTA-Ni in the bulk solution was kept to 12.5 μM in all assays with DOG-NTA-Ni-containing vesicles. For assays of the kinase domain attached to vesicles, the protein and vesicles were preincubated at 4° C. for ˜5 min.
The wildtype EGFR kinase domain was mixed with vesicles containing 0, 0.5, 1, 2 and 5 mole percent of DOGS-NTA-Ni prior to the start of the assay. The final concentration of the protein in the assay was 3.5 μM. […]
For comparing the specific activity of the wildtype and various mutant forms of the EGFR kinase domain in the presence and absence of lipid vesicles, the density of DOGS-NTA-Ni on lipid vesicles was kept at 5 mole percent. […] Due to this high value of KM, the values of KM and kcat were not measured directly. […]

Molecule	Km [1] [mM]	IC50 [2] [µM]
CC(C)C[C@H](NC(=O)[C@H](Cc1ccc(O)cc1)NC(=O)[C@H](CCC(=O)O)NC(=O)[C@H](C)NC(=O)[C@H](CC(N)=O)NC(=O)[C@H](CCC(=O)O)NC(=O)[C@H](C)NC(=O)[C@@H](N)[C@@H](C)O)C(=O)N[C@@H](CCCNC(=N)N)C(=O)N[C@H](C(=O)N[C@@H](C)C(=O)N1CCC[C@H]1C(=O)N[C@@H](CCC(N)=O)C(=O)O)C(C)C [substrate peptide] (H-TAENAEYLRVAPQ-OH)	> 4	–
KSLPSYLNGVMPPTQSFAPDPKYVSS [40-mer peptide]	–	~10
